The record followed here is PMC11643494, “Structure–Activity Relationship Studies in a Series of 2-Aryloxy-N-(pyrimidin-5-yl)acetamide Inhibitors of SLACK Potassium Channels” (Molecules, 2024).

Each structure is given as a SMILES string. Where “and” joins values, the source holds several entries; their conditions need not be identical. Equal values may be shown once.

The target of test [1] is T1, SLICK (Homo sapiens, UniProt Q6UVM3).
T1 construct: expressed in transfected cells; host or cells: HEK293
T1 sequence (Q6UVM3 whole entry): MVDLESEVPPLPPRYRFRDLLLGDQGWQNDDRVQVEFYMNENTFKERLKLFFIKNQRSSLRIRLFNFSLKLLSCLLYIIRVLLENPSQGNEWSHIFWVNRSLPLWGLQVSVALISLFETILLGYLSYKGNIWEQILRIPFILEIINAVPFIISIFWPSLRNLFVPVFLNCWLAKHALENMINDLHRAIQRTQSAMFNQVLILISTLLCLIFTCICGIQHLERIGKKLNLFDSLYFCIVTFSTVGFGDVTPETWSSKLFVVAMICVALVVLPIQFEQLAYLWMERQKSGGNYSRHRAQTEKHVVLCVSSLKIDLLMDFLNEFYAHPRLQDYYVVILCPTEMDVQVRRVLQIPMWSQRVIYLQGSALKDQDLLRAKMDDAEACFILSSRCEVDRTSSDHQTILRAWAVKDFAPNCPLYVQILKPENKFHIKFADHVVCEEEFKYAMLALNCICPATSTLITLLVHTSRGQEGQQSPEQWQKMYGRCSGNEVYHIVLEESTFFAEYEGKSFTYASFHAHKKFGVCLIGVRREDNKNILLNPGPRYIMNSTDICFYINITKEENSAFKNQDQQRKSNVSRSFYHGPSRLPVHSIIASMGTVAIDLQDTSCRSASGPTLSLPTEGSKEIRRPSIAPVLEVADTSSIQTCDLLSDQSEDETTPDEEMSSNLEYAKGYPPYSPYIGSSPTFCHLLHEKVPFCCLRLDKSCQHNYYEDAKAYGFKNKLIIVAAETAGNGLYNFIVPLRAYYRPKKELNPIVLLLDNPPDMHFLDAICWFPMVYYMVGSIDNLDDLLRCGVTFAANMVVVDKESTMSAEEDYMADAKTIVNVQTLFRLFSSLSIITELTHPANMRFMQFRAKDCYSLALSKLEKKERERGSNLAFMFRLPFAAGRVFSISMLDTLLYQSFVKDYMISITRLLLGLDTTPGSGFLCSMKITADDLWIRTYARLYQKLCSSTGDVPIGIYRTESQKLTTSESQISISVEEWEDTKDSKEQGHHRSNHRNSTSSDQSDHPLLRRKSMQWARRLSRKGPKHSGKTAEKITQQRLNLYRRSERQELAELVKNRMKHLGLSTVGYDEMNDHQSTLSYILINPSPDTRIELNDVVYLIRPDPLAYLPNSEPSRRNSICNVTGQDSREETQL
Description: Tl+-flux assay in HEK-293 cells, SLICK. It is filed as cell-based. The settings on record: 10 µM test compound. The source says: (§1) Having executed our plan to prepare analogs across the identified regions of the chemotype (Figure 2), we identified two analogs for further profiling and evaluation. […] Desiring to add a second compound with some measure of structural differences, we also chose another submicromolar SLACK inhibitor 66 (VU0936154). Whereas 40 contains an ether linker and a halogenated phenyl group in the eastern region, […] contains an N-methyl linker and a phenyl group with a more polar cyano substituent. We first screened these analogs at 10 µM versus our in-house panel of ion channel targets using Tl^+-flux assays in HEK-293 cells expressing the human target of interest. […] Included in this set are Slo family members SLICK and two isoforms of Maxi-K, as well as several different K^+, Na^+, and Ca^2+ channels (Table 6). […] Of note was the excellent selectivity versus the broader panel of targets for both compounds, including versus the hERG channel.
(§2) Stably transfected monoclonal HEK293 cell lines expressing SLICK, Maxi-K α1/β3, Maxi-K α1/β4, CaV3.2, GIRK 1/2, KV2.1, KV7.2, NaV1.7, and TASK-1 were generated as previously described. […]
(§3) The Tl^+ flux assays were conducted as previously described, with modifications optimized for individual cell lines as described below. […] Cell plates were then loaded onto a Panoptic kinetic imaging plate reader (WaveFront Biosciences, Franklin, TN, USA). […]

Test [2] deals with T2, GIRK 1/2 (Homo sapiens, UniProt P48051+P48549).
T2 construct: expressed in transfected cells; host or cells: HEK293
T2 sequence (P48549 whole entry): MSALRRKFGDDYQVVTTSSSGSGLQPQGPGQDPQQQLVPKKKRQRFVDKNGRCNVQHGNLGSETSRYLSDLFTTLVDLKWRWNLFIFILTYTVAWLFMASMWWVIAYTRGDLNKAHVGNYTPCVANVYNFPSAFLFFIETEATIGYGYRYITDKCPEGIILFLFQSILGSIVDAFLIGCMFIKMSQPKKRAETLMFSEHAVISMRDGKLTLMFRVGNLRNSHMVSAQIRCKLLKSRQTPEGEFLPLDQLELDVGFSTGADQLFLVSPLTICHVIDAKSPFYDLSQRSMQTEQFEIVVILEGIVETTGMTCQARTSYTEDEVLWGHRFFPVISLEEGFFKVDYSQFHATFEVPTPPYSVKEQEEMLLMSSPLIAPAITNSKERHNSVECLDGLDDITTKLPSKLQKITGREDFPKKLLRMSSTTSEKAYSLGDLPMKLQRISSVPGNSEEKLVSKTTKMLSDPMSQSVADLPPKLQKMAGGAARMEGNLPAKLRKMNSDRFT
T2 sequence (P48051 whole entry): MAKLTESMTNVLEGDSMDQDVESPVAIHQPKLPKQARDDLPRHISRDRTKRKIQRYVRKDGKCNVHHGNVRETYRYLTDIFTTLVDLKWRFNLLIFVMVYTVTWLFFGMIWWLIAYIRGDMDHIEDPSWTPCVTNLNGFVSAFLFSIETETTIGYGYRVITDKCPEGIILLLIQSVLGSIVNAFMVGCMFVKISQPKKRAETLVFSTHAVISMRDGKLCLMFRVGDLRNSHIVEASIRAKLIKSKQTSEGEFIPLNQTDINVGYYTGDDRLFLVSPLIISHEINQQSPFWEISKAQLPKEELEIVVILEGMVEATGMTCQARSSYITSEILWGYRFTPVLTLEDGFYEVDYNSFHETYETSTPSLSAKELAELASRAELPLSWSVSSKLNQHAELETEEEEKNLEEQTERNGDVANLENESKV
Kind of test: Tl+-flux assay in HEK-293 cells, GIRK 1/2. The format is cell-based. The settings on record: HEK293; 10 µM test compound; relative to control SCH23390; read-out: Percent Inhibition ± SEM, GIRK 1/2.
Text: as §1, §2, §3

In the case of `CC(C)(Oc1ccc(Cl)cc1)C(=O)Nc1cnc(Oc2c(F)cccc2F)nc1` [Analog 40], in test [1] (activator, relative to control acetazolamide), the “Percent activation ± SEM, SLICK” value was 36% and 36 ± 8.8 (activator) ^3%. In test [2], the inhibition at 10 µM is 6.8 ± 3.3%.

On to `CN(c1ccc(C#N)cc1)c1ncc(NC(=O)C(C)(C)Oc2ccc(Cl)cc2)cn1` [Analog 66], for which the inhibition at 10 µM in test [1] (HEK293, relative to control SKF96365, read-out: Percent Inhibition ± SEM, SLICK) is 16 ± 1.4%; in test [2] it was 6.4 ± 1.5%.
